≈ marks a conversion by molar mass, not a printed value.
Test system: Escherichia coli
Assay: Tested for inhibitory activity against DNA gyrase supercoiling in Escherichia coli (KL-16)
Assay type: functional

| IC50 | SMILES |
| --- | --- |
| 0.53 µg/mL | CN1CCN(c2c(F)cc3c(=O)c(C(=O)O)c4n5c3c2N(C)CC5CS4)CC1.Cl (stereo unspecified) |
| 0.33 µg/mL | CN1CCN(c2c(F)cc3c(=O)c(C(=O)O)c4n5c3c2OCC5CS4)CC1.Cl (stereo unspecified) |
| 0.67 µg/mL | CN1CCN(c2c(F)cc3c(=O)c(C(=O)O)c4n5c3c2C(=O)CC5CS4)CC1.Cl (stereo unspecified) |
| 2.61 µg/mL | CN1CCN(c2c(F)cc3c(=O)c(C(=O)O)c4n5c3c2SCC5CO4)CC1.Cl (stereo unspecified) |
| 0.53 µg/mL (≈ 1.47 µM) | CC1COc2c(N3CCN(C)CC3)c(F)cc3c(=O)c(C(=O)O)cn1c23 (stereo unspecified) [OFLOXACIN] |

Test system: Staphylococcus epidermidis
Assay: Tested in vitro for antibacterial activity against Staphylococcus epidermidis (IAM 1296)
Assay type: functional

| MIC | SMILES |
| --- | --- |
| 0.78 µg/mL | CN1CCN(c2c(F)cc3c(=O)c(C(=O)O)c4n5c3c2N(C)CC5CS4)CC1.Cl (stereo unspecified) |
| 0.2 µg/mL | CN1CCN(c2c(F)cc3c(=O)c(C(=O)O)c4n5c3c2OCC5CS4)CC1.Cl (stereo unspecified) |
| 3.13 µg/mL | CN1CCN(c2c(F)cc3c(=O)c(C(=O)O)c4n5c3c2C(=O)CC5CS4)CC1.Cl (stereo unspecified) |
| 6.25 µg/mL | CN1CCN(c2c(F)cc3c(=O)c(C(=O)O)c4n5c3c2SCC5CO4)CC1.Cl (stereo unspecified) |

Test system: Escherichia coli
Assay: Tested in vitro for antibacterial activity agains Escherichia coli (NIHJ JC-2)
Assay type: functional

| MIC | SMILES |
| --- | --- |
| 0.78 µg/mL | CN1CCN(c2c(F)cc3c(=O)c(C(=O)O)c4n5c3c2N(C)CC5CS4)CC1.Cl (stereo unspecified) |
| 0.05 µg/mL | CN1CCN(c2c(F)cc3c(=O)c(C(=O)O)c4n5c3c2OCC5CS4)CC1.Cl (stereo unspecified) |
| 0.78 µg/mL | CN1CCN(c2c(F)cc3c(=O)c(C(=O)O)c4n5c3c2C(=O)CC5CS4)CC1.Cl (stereo unspecified) |
| 1.56 µg/mL | CN1CCN(c2c(F)cc3c(=O)c(C(=O)O)c4n5c3c2SCC5CO4)CC1.Cl (stereo unspecified) |

Test system: Staphylococcus aureus
Assay: Tested in vitro for antibacterial activity against Staphylococcus aureus (FDA 209P JC-1)
Assay type: functional

| MIC | SMILES |
| --- | --- |
| 0.78 µg/mL | CN1CCN(c2c(F)cc3c(=O)c(C(=O)O)c4n5c3c2N(C)CC5CS4)CC1.Cl (stereo unspecified) |
| 0.1 µg/mL | CN1CCN(c2c(F)cc3c(=O)c(C(=O)O)c4n5c3c2OCC5CS4)CC1.Cl (stereo unspecified) |
| 0.78 µg/mL | CN1CCN(c2c(F)cc3c(=O)c(C(=O)O)c4n5c3c2C(=O)CC5CS4)CC1.Cl (stereo unspecified) |
| 1.56 µg/mL | CN1CCN(c2c(F)cc3c(=O)c(C(=O)O)c4n5c3c2SCC5CO4)CC1.Cl (stereo unspecified) |

Test system: Klebsiella pneumoniae
Assay: Tested in vitro for antibacterial activity against Klebsiella pneumoniae (B54)
Assay type: functional

| MIC | SMILES |
| --- | --- |
| 0.39 µg/mL | CN1CCN(c2c(F)cc3c(=O)c(C(=O)O)c4n5c3c2N(C)CC5CS4)CC1.Cl (stereo unspecified) |
| 0.05 µg/mL | CN1CCN(c2c(F)cc3c(=O)c(C(=O)O)c4n5c3c2OCC5CS4)CC1.Cl (stereo unspecified) |
| 0.78 µg/mL | CN1CCN(c2c(F)cc3c(=O)c(C(=O)O)c4n5c3c2C(=O)CC5CS4)CC1.Cl (stereo unspecified) |
| 1.56 µg/mL | CN1CCN(c2c(F)cc3c(=O)c(C(=O)O)c4n5c3c2SCC5CO4)CC1.Cl (stereo unspecified) |

Test system: Pseudomonas aeruginosa
Assay: Tested in vitro for antibacterial activity against Pseudomonas aeruginosa (E-2)
Assay type: functional

| MIC | SMILES |
| --- | --- |
| 6.25 µg/mL | CN1CCN(c2c(F)cc3c(=O)c(C(=O)O)c4n5c3c2N(C)CC5CS4)CC1.Cl (stereo unspecified) |
| 1.56 µg/mL | CN1CCN(c2c(F)cc3c(=O)c(C(=O)O)c4n5c3c2OCC5CS4)CC1.Cl (stereo unspecified) |
| 3.13 µg/mL | CN1CCN(c2c(F)cc3c(=O)c(C(=O)O)c4n5c3c2C(=O)CC5CS4)CC1.Cl (stereo unspecified) |
| 60 µg/mL | CN1CCN(c2c(F)cc3c(=O)c(C(=O)O)c4n5c3c2SCC5CO4)CC1.Cl (stereo unspecified) |

Test system: Pseudomonas aeruginosa
Assay: Tested in vitro for antibacterial activity against Pseudomonas aeruginosa (IFO 3445)
Assay type: functional

| MIC | SMILES |
| --- | --- |
| 6.25 µg/mL | CN1CCN(c2c(F)cc3c(=O)c(C(=O)O)c4n5c3c2N(C)CC5CS4)CC1.Cl (stereo unspecified) |
| 1.56 µg/mL | CN1CCN(c2c(F)cc3c(=O)c(C(=O)O)c4n5c3c2OCC5CS4)CC1.Cl (stereo unspecified) |
| 6.25 µg/mL | CN1CCN(c2c(F)cc3c(=O)c(C(=O)O)c4n5c3c2C(=O)CC5CS4)CC1.Cl (stereo unspecified) |
| 50 µg/mL | CN1CCN(c2c(F)cc3c(=O)c(C(=O)O)c4n5c3c2SCC5CO4)CC1.Cl (stereo unspecified) |

Test system: Staphylococcus aureus
Assay: Tested in vitro for antibacterial activity against Staphylococcus aureus (IID 803)
Assay type: functional

| MIC | SMILES |
| --- | --- |
| 0.39 µg/mL | CN1CCN(c2c(F)cc3c(=O)c(C(=O)O)c4n5c3c2N(C)CC5CS4)CC1.Cl (stereo unspecified) |
| 0.1 µg/mL | CN1CCN(c2c(F)cc3c(=O)c(C(=O)O)c4n5c3c2OCC5CS4)CC1.Cl (stereo unspecified) |
| 0.78 µg/mL | CN1CCN(c2c(F)cc3c(=O)c(C(=O)O)c4n5c3c2C(=O)CC5CS4)CC1.Cl (stereo unspecified) |
| 3.13 µg/mL | CN1CCN(c2c(F)cc3c(=O)c(C(=O)O)c4n5c3c2SCC5CO4)CC1.Cl (stereo unspecified) |

Test system: Enterococcus faecalis
Assay: Tested in vitro for antibacterial activity agains Enterococcus faecalis (IID 682)
Assay type: functional

| MIC | SMILES |
| --- | --- |
| 1.56 µg/mL | CN1CCN(c2c(F)cc3c(=O)c(C(=O)O)c4n5c3c2N(C)CC5CS4)CC1.Cl (stereo unspecified) |
| 0.78 µg/mL | CN1CCN(c2c(F)cc3c(=O)c(C(=O)O)c4n5c3c2OCC5CS4)CC1.Cl (stereo unspecified) |
| 3.13 µg/mL | CN1CCN(c2c(F)cc3c(=O)c(C(=O)O)c4n5c3c2C(=O)CC5CS4)CC1.Cl (stereo unspecified) |
| 6.25 µg/mL | CN1CCN(c2c(F)cc3c(=O)c(C(=O)O)c4n5c3c2SCC5CO4)CC1.Cl (stereo unspecified) |

Test system: Escherichia coli
Assay: Tested in vitro for antibacterial activity against Escherichia coli (KC-14)
Assay type: functional

| MIC | SMILES |
| --- | --- |
| 0.78 µg/mL | CN1CCN(c2c(F)cc3c(=O)c(C(=O)O)c4n5c3c2N(C)CC5CS4)CC1.Cl (stereo unspecified) |
| 0.025 µg/mL | CN1CCN(c2c(F)cc3c(=O)c(C(=O)O)c4n5c3c2OCC5CS4)CC1.Cl (stereo unspecified) |
| 0.39 µg/mL | CN1CCN(c2c(F)cc3c(=O)c(C(=O)O)c4n5c3c2C(=O)CC5CS4)CC1.Cl (stereo unspecified) |
| 1.56 µg/mL | CN1CCN(c2c(F)cc3c(=O)c(C(=O)O)c4n5c3c2SCC5CO4)CC1.Cl (stereo unspecified) |

— ChEMBL document CHEMBL1126942, “Synthesis and antibacterial activity of a new series of tetracyclic pyridone carboxylic acids” (J Med Chem, 1993)
